Data taken from ChEMBL document CHEMBL1146385, “Discovery of novel phenoxyacetic acid derivatives as antimycobacterial agents” (2007).
Values after ≈ are worked out from the molar mass of the structure shown.

Test system: Mycobacterium tuberculosis
Experiment: Antimycobacterial activity against isoniazid-resistant Mycobacterium tuberculosis by broth dilution assay
Assay type: functional

In order of rising MIC:
1. COc1cc(C2=NN(C(N)=S)C(c3ccc(Cl)cc3)C2)ccc1OCC(=O)O (configuration not stated)  0.06 µg/mL (≈ 0.143 µM)
2. COc1cc(C2=NN(C(N)=S)C(c3ccccc3Cl)C2)ccc1OCC(=O)O (configuration not stated)  0.12 µg/mL (≈ 0.286 µM)
3. COc1cc(C2=NN(C(N)=O)C(c3ccc(Cl)cc3)C2)ccc1OCC(=O)O (configuration not stated)  0.13 µg/mL (≈ 0.322 µM)
4. COc1cc(C2=NN(C(N)=S)C(c3ccc(O)cc3)C2)ccc1OCC(=O)O (configuration not stated)  0.2 µg/mL (≈ 0.498 µM)
5. COc1cc(C2=NN(C(N)=S)C(c3ccccc3O)C2)ccc1OCC(=O)O (configuration not stated)  0.58 µg/mL (≈ 1.44 µM)
6. COc1cc(C2=NN(C(N)=O)C(c3ccccc3O)C2)ccc1OCC(=O)O (configuration not stated)  0.58 µg/mL (≈ 1.51 µM)
7. COc1cc(C2=NN(C(N)=S)C(c3ccc(F)cc3)C2)ccc1OCC(=O)O (configuration not stated)  0.96 µg/mL (≈ 2.38 µM)
8. COc1cc(C2=NN(C(N)=O)C(c3ccc(O)cc3)C2)ccc1OCC(=O)O (configuration not stated)  1.23 µg/mL (≈ 3.19 µM)
9. COc1cc(C2=NN(C(N)=O)C(c3ccccc3Cl)C2)ccc1OCC(=O)O (configuration not stated)  1.26 µg/mL (≈ 3.12 µM)
10. COc1cc(C2=NN(C(N)=S)C(c3cccc([N+](=O)[O-])c3)C2)ccc1OCC(=O)O (configuration not stated)  3.12 µg/mL (≈ 7.25 µM)
11. COc1cc(C2=NN(C(N)=O)C(c3ccc(F)cc3)C2)ccc1OCC(=O)O (configuration not stated)  3.25 µg/mL (≈ 8.39 µM)
12. COc1cc(C2=NN(C(N)=O)C(c3ccc(N)cc3)C2)ccc1OCC(=O)O (configuration not stated)  5.42 µg/mL (≈ 14.1 µM)
13. COc1cc(C2=NN(C(N)=O)C(c3ccccc3)C2)ccc1OCC(=O)O (configuration not stated)  6.12 µg/mL (≈ 16.6 µM)
14. COc1cc(C2=NN(C(N)=S)C(c3ccc(C)cc3)C2)ccc1OCC(=O)O (configuration not stated)  6.15 µg/mL (≈ 15.4 µM)
15. COc1cc(C2=NN(C(N)=S)C(Cc3ccccc3)C2)ccc1OCC(=O)O (configuration not stated)  6.25 µg/mL (≈ 15.6 µM)
16. COc1cc(C2=NN(C(N)=O)C(c3ccc(C)cc3)C2)ccc1OCC(=O)O (configuration not stated)  6.25 µg/mL (≈ 16.3 µM)
17. COc1cc(C2=NN(C(N)=O)C(Cc3ccccc3)C2)ccc1OCC(=O)O (configuration not stated)  6.25 µg/mL (≈ 16.3 µM)
18. COc1cc(C2=NN(C(N)=S)C(c3ccccc3)C2)ccc1OCC(=O)O (configuration not stated)  6.25 µg/mL (≈ 16.2 µM)
19. COc1cc(C2=NN(C(N)=O)C(c3cccc([N+](=O)[O-])c3)C2)ccc1OCC(=O)O (configuration not stated)  6.25 µg/mL (≈ 15.1 µM)
20. COc1cc(C2=NN(C(N)=O)C(c3ccc([N+](=O)[O-])cc3)C2)ccc1OCC(=O)O (configuration not stated)  6.25 µg/mL (≈ 15.1 µM)
21. COc1cc(C2=NN(C(N)=S)C(c3ccc([N+](=O)[O-])cc3)C2)ccc1OCC(=O)O (configuration not stated)  6.25 µg/mL (≈ 14.5 µM)
22. COc1cc(C2=NN(C(N)=S)C(c3ccc(N)cc3)C2)ccc1OCC(=O)O (configuration not stated)  12.5 µg/mL (≈ 31.2 µM)
